This note sets out measurements from ChEMBL document CHEMBL3580546, “Structure-activity study of N-((trans)-4-(2-(7-cyano-3,4-dihydroisoquinolin-2(1H)-yl)ethyl)cyclohexyl)-1H-indole-2-carboxamide (SB269652), a bitopic ligand that acts as a negative allosteric modulator of the dopamine D2 receptor” (J Med Chem, 2015).

For test [1], the target named is D(2) dopamine receptor (Homo sapiens) (UniProt P14416). Put plainly: Displacement of [3H]raclopride from wild type human dopamine D2L receptor expressed in FlpIn CHO cell membrane assessed as equilibrium dissociation constant after 3 hrs by MicroBeta counting analysis. In kind it is cell membranes.
Sequence of D(2) dopamine receptor (Homo sapiens) (P14416 whole entry): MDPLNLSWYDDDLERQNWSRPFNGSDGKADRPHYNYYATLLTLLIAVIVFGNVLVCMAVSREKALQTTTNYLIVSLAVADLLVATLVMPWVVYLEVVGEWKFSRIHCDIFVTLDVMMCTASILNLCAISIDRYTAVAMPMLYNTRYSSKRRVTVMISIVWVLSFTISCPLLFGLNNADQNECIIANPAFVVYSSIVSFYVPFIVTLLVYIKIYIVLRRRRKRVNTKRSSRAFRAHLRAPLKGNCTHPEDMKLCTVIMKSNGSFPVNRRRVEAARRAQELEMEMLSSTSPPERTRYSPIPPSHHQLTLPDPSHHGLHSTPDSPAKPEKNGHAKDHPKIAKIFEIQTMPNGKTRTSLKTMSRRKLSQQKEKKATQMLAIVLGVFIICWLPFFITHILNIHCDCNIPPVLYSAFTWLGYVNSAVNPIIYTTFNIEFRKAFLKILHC
The target is the same in test [2]. Put plainly: Negative allosteric modulator activity at wild type human dopamine D2L receptor expressed in FlpIn CHO […] assessed as ERK1/2 phosphorylation measured as equilibrium dissociation constant after 30 mins. Format: cell-based.
Test [3] shares this target. Put plainly: Binding affinity to human dopamine D2 receptor.

SMILES strings stand for the structures.

The pKb is the negative decadic logarithm of the Kb, by convention in mol/L. With `N#Cc1ccc2c(c1)CN(CC[C@H]1CC[C@H](NC(=O)c3ccc[nH]3)CC1)CC2`, the Kb came out at 57.5 nM in test [1] and 3.31 nM in test [2]. Further, the pKb amounted to 7.24 in test [1] and 8.48 in test [2].
On the same counts, the results for `N#Cc1ccc2c(c1)CN(CC[C@H]1CC[C@H](NC(=O)c3nc4ccccc4o3)CC1)CC2` are 263 nM, 18.2 nM, 6.58 and 7.74.
The corresponding values for `N#Cc1ccc2c(c1)CN(CC[C@H]1CC[C@H](NC(=O)c3nc4ccccc4[nH]3)CC1)CC2` are 81.3 nM, 174 nM, 7.09 and 6.76.
The corresponding values for `COc1ccccc1N1CCN(CC[C@H]2CC[C@H](NC(=O)c3cc4ccccc4[nH]3)CC2)CC1` are 3.4 nM, 0.257 nM, 8.41 and 9.59.
Turning to `CN(C(=O)c1cc2ccccc2[nH]1)[C@H]1CC[C@H](CCN2CCc3ccc(C#N)cc3C2)CC1`, in test [1], the Kb stood at 117 nM and the pKb came out at 6.93. Besides, in test [2], the Kb amounted to 91.2 nM and the pKb was 7.04.
As for `N#Cc1ccc2c(c1)CNCC2`, the Kb in test [3] was 2500 nM.
On to `N#Cc1ccc2c(c1)CN(CCCCCCNC(=O)c1cc3ccccc3[nH]1)CC2`, for which, in test [1], the Kb was 269 nM and the pKb was determined as 6.57. Also, in test [2], the Kb came to 30.1 nM and the pKb was determined as 7.52.
For `O=C(N[C@H]1CC[C@H](CCN2CCc3ccc(Br)cc3C2)CC1)c1cc2ccccc2[nH]1`, in test [1], the Kb was found to be 170 nM and the negative-log Kb (pKb) is 6.77. Besides, in test [2], the Kb turned out to be 138 nM and the pKb came out at 6.86.
As to `N#Cc1ccc2c(c1)CN(CC[C@H]1CC[C@H](NC(=O)c3cc4cccnc4[nH]3)CC1)CC2`, in test [1], the Kb turned out to be 45.7 nM and the negative logarithm of the Kb (pKb) is 7.34. In test [2], the Kb is 23.4 nM and the pKb was found to be 7.63.
On the same counts, the results for `N#Cc1ccc2c(c1)CN(CC[C@H]1CC[C@H](NC(=O)[C@@H]3CCCN3)CC1)CC2` are 23.4 nM, 7.63, 27.5 nM and 7.56.
The corresponding values for `O=C(N[C@H]1CC[C@H](CCN2CCc3sccc3C2)CC1)c1cc2ccccc2[nH]1` are 2240 nM, 5.65, 339 nM and 6.47.
On the same counts, the results for `O=C(N[C@H]1CC[C@H](CCN2CCc3ccc(C(F)(F)F)cc3C2)CC1)c1cc2ccccc2[nH]1` are 759 nM, 6.12, 891 nM and 6.05.
In the case of `N#Cc1ccc2c(c1)CN(CC[C@H]1CC[C@H](NC(=O)c3cc4ccccc4o3)CC1)CC2`, in test [1], the Kb was found to be 282 nM and the pKb is 6.55. Besides, in test [2], the Kb stood at 18.2 nM and the pKb came to 7.74.
The corresponding values for `N#Cc1ccc2c(c1)CN(CCCNC(=O)c1cc3ccccc3[nH]1)CC2` are 372 nM, 6.43, 138 nM and 6.86.
On to `N#Cc1ccc2c(c1)CN(CC[C@H]1CC[C@H](NC(=O)C3=Cc4ccccc4C3)CC1)CC2`, for which, in test [1], the Kb came out at 151 nM and the pKb came to 6.82. Further, in test [2], the Kb was 22.9 nM and the negative logarithm of the Kb (pKb) came to 7.64.
On the same counts, the results for `O=C(N[C@H]1CC[C@H](CCN2CCc3ccc(Cl)cc3C2)CC1)c1cc2ccccc2[nH]1` are 148 nM, 6.83, 2090 nM and 5.68.
The corresponding values for `N#Cc1ccc2c(c1)CN(CC[C@H]1CC[C@H](NC(=O)[C@H]3CCCN3)CC1)CC2` are 363 nM, 6.74, 45.7 nM and 7.34.
The corresponding values for `O=C(N[C@H]1CC[C@H](CCN2CCCc3ccccc3C2)CC1)c1cc2ccccc2[nH]1` are 2510 nM, 5.6, 2570 nM and 5.59.
As for `Cn1c(C(=O)N[C@H]2CC[C@H](CCN3CCc4ccc(C#N)cc4C3)CC2)cc2ccccc21`, the Kb in test [1] is 151 nM; in test [2] it was 72.4 nM. Besides, the pKb in test [1] turned out to be 6.82; in test [2] it was 7.14.
The corresponding values for `N#Cc1ccc2c(c1)CN(CCCCCNC(=O)c1cc3ccccc3[nH]1)CC2` are 479 nM, 132 nM, 6.32 and 6.88.
The corresponding values for `O=C(N[C@H]1CC[C@H](CCN2CCc3ccccc3C2)CC1)c1cc2ccccc2[nH]1` are 295 nM, 87 nM, 6.53 and 7.06.
On the same counts, the results for `O=C(N[C@H]1CC[C@H](CCN2CCc3ccc(F)cc3C2)CC1)c1cc2ccccc2[nH]1` are 245 nM, 1050 nM, 6.61 and 5.98.
Take `O=C(N[C@H]1CC[C@H](CCN2CCN(c3cccc(Cl)c3Cl)CC2)CC1)c1cc2ccccc2[nH]1`: in test [1], the Kb is 5.25 nM and the pKb amounted to 8.28. In test [2], the Kb was found to be 1.38 nM and the pKb came out at 8.86.
Consider `N#Cc1ccc2c(c1)CN(CCCCNC(=O)c1cc3ccccc3[nH]1)CC2`, for which, in test [1], the Kb is 158 nM and the pKb was 6.8. For the same compound, in test [2], the Kb worked out at 81.2 nM and the pKb amounted to 7.09.
